Several values for one entry are separate records, joined by “and”; a condition that tells them apart may be missing. Equal values may be shown once.
How the values were obtained:
[1] = target: T1, Acetylcholinesterase (AChE, EC 3.1.1.7) (Electrophorus electricus, UniProt O42275); assay: Acetylcholinesterase inhibition, modified Ellman colorimetric method; assay type: biochemical; settings: for Hillslope: AChE inhibition dose–response curve; for LOAEL: AChE inhibition; for LOAEL / IC50: Ellman assay; for IC50: IC50, AChE inhibition, 0.03–2 mM, Hill fit
T1 construct: purchased Sigma-Aldrich
Procedure: Acetylcholinesterase (AChE, EC 3.1.1.7) enzymatic activity was assessed using a modified version of Ellman’s colorimetric method, as described by Falé et al.. In this assay, a mixture of 325 μL of 50 mM Tris-HCl buffer (pH 8), 100 μL of a cathinone solution, and 25 μL of AChE (0.1 U/mL in 50 mM Tris–HCl buffer pH 8) were incubated. After a 15 min incubation period, 75 μL of AChI (0.33 mg/mL) was added to 475 μL of DTNB (dithiobis (2-nitrobenzoic acid)) (1.2 mg/mL in Tris–HCl buffer (pH 8) containing 0.1 M NaCl and 0.02 M MgCl2). A control reaction, representing 100% activity, was performed using the same volume of water instead of the cathinone solution. The initial velocity of the enzymatic reaction was measured at 405 nm for 5 min, with all assays carried out in duplicate. The percentage of AChE activity inhibition for different concentrations of cathinones [0.03–2 mM] was determined as the ratio of the initial velocity in the cathinone presence to the initial velocity of the control reaction. Experimental results were fitted to Hill’s sigmoidal dose–response non-linear regression model to determine IC50 values (cathinone concentration showing 50% inhibition), along with their confidence interval at the 95% confidence level ([CI]). The Hill slope coefficients that provide the steepest value of the slope of the dose–response curve and the minimum observable adverse effect concentration (LOAEL) for all cathinones were also determined.

SH-SY5Y cells [2] = assay: Mitochondrial membrane potential (JC-1 probe); assay type: cell-based, human; settings: 6 h treatment at LC50, JC-1
Procedure: Mitochondrial membrane potential (MMP) was estimated by using the JC-1 fluorescent probe (Molecular Probes, Eugene, OR, USA) as described in Silva et al., 2022 [65]. The formation of JC-1 aggregates (excitation λ: 490 nm; emission λ: 590 nm) and monomers (excitation λ: 490 nm; emission λ: 530 nm) was measured for 30 min using a plate reader (Bio-Tek Synergy plate reader, Bedfordshire, UK). Changes in MMP were calculated as the ratio between JC-1 monomers and aggregates and expressed as a percentage of the control. An FCCP (2.5 µM) and oligomycin A (1 mg/mL) conjugate solution was used as the positive control. All data were obtained from at least three independent experiments (n = 3) and were presented as mean ± standard error of the mean (SEM).

SH-SY5Y cells [3] = assay: Intracellular reactive oxygen species levels (H2-DCFDA probe); assay type: cell-based, human; settings: 6 h treatment at LC50
Procedure: Reactive oxygen species (ROS) production was determined by evaluating ROS levels after exposure to cathinones at concentrations corresponding to their LC50 for 6 h. SH-SY5Y cells were washed with 1× PBS and incubated with 100 µL of 2′,7′-dichlorodihydrofluorescein diacetate (H2-DCFDA) (20 µM) in medium without FBS, for 60 min at 37 °C in the dark. Subsequently, the cells were washed with 1× PBS (1×), and the cells were maintained for 30 min at room temperature in 100 µL of PBS. After this time, ROS levels were determined by measuring fluorescence (excitation wavelength (λ): 495 nm; emission λ: 527 nm). Ascorbic acid (A.A) (100 µg/mL) served as the negative control and, hydrogen peroxide (H2O2) (200 µM) was used as the positive control. Results were expressed as a percentage relative to the control. All data were derived from at least three independent experiments (n = 3) and presented as mean ± standard error of the mean (SEM).

[4] = test system: differentiated SH-SY5Y cells; assay: MTT cytotoxicity assay on differentiated SH-SY5Y cells; assay type: cell-based, human; settings: lowest observed adverse effect level, differentiated SH-SY5Y, 24 h, MTT
Procedure: (§1) The SH–SY5Y cell line (DSMZ code: ACC 209) was supplied by the German Collection of Microorganisms and the Cell Culture GmbH (DSMZ) biobank and was cultured according to the supplier’s information. Cells were grown in DMEM:F12 (Dulbecco’s Modified Eagle’s Medium/F12), supplemented with 10% fetal bovine serum (FBS) and 1% antibiotic–antimycotic in a humidified atmosphere with 5% CO2 at 37 °C. Subculture was performed according to biobank instructions when the cultures reached 80–85% of confluence.
(§2) SH-SY5Y cells were trypsinized (trypsin/EDTA; 0.25%) and the cell suspension was seeded in 96-well plates at a density of 2 × 10^4 cells/well and incubated until reaching 80-85% confluence. Cells were differentiated to obtain a dopaminergic neuronal phenotype according to Ferreira et al. with slight modifications (Figure 10). To ensure reproducibility and optimal neuronal differentiation, cells were used between passages (15–25). Briefly, cells were seeded in complete DMEM:F12 medium containing 10 µM retinoic acid (RA) and 2.5% fetal bovine serum (FBS) and maintained for 4 days, with the medium changed on day 2. After this time, the medium was replaced by DMEM:F12 supplemented with 10 µM RA, 80 nM 12-O-tetradecanoylphorbol-13-acetate (TPA), and 2.5% FBS, and the cells were maintained for an additional 4 days (with the medium changed at day 6). The cytotoxicity assay was performed on day 8.
(§3) The SH-SY5Y cells’ viability was evaluated after exposure for 24 h to […]. The 3-(4,5-dimethylthiazol-2-yl) − 2,5-diphenyltetrazolium bromide (MTT) colorimetric assay was performed following the methodology described by Joana Silva et al.. The experimental dose–response results were fitted to the Hill’s sigmoidal non-linear regression model. For each cathinone, the LC50 values (cathinone concentration showing 50% lethality) and their confidence interval at the 95% confidence level ([CI]) were determined. The Hill slope, also known as the Hill coefficient, which describes the steepness of a dose–response curve, and the minimum observable adverse effect concentration (LOAEL) were also determined for all cathinones.

[5] = as above; assay type: cell-based, human; settings: human, differentiated SH-SY5Y, 0.05–5 mM, MTT reduction assay, Hill fit, read-out: LC50
Procedure: as §1, §2, §3

T1 sequence (O42275 24-633): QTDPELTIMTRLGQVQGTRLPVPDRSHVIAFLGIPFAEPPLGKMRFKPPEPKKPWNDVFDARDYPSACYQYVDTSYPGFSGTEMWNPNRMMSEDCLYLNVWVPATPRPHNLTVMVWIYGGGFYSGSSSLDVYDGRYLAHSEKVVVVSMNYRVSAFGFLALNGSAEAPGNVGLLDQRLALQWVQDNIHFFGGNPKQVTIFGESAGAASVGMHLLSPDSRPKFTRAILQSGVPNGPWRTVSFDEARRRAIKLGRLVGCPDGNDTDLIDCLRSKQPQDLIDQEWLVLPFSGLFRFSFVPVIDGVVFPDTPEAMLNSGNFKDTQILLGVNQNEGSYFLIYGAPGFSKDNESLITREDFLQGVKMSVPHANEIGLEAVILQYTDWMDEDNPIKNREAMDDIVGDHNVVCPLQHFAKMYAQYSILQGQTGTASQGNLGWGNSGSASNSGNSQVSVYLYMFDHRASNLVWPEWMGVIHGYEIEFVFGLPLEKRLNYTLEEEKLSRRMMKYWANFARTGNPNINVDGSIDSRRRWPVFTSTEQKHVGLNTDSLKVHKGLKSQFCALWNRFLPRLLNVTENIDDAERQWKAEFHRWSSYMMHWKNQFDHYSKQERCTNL

SMILES | maximum inhibition of AChE among the tested concentrations ([1]; 0.03 to 2 mM) [%] | Hillslope [1] | LOAEL [1] [mM] | IC50 [1] [mM] | MMP depolarization (SH-SY5Y cells [2]) | significant increase in ROS production compared to vehicle (SH-SY5Y cells [3]) | LOAEL [4] | CC50 at 24 h [5] [mM] | inhibition at 2000 µM ([1]; highest tested concentration of 2 mM) [%] | increase in ROS production compared to the vehicle (SH-SY5Y cells [3]) [%]
CCN(CC)C(C)C(=O)c1cccc(Cl)c1 (racemic) [3-Cl-DEC (15), (R,S)-1-(3-chlorophenyl)-2-(diethylamino)propan-1-one] | 87 | 0.9 | 0.063 | 0.3 | more pronounced MMP depolarization than the other cathinones | exception | 1 mM and 1.0 mM | 1.2 | – | –
CC(NC(C)(C)C)C(=O)c1ccc(Cl)cc1 (racemic) [4-Cl-TBC (20), (R,S)-2-(tert-butylamino)-1-(4-chlorophenyl)propan-1-one] | – | 2.7 | 0.500 | ~2 | – | – | 0.5 mM | 1.3 | 48 | 30

Reference: publication PMC12027149 (International Journal of Molecular Sciences, 2025)
